This is an account of results in patent US6551964B1, “Use of citric acid derivatives as pesticidal adjuvants” (Bayer Cropscience S.A., priority 1998, dated 2003).

Where a name gives a salt, the structure may show the parent alone.

For this test, the system named is test species shown in Table C (common weeds). Kind of test: Herbicidal efficacy, glasshouse, all test species of Table C. The following applies: adjuvant alone, experiments 26d to 29d. Type of test: in vivo.

Consider `CCCCOC(=O)CC(CC(=O)OCCCC)(OC(C)=O)C(=O)OCCCC` [O-acetyl tri-n-butyl citrate], for which the “herbicidal effects in the absence of any active ingredient” value is “no herbicidal effects”.

With `CCCCOC(=O)CC(O)(CC(=O)OCCCC)C(=O)OCCCC` [tri-n-butyl citrate], the “herbicidal effects in the absence of any active ingredient” value was “no herbicidal effects”.
